Data reported in patent US9029553B2, “2-anilino nicotinyl linked 2-amino benzothiazole conjugates and process for the preparation thereof” (Council of Scientific & Industrial Research, priority 2011, dated 2015).
“Also recorded” adds a separate entry of the source.

How the values were obtained:
[1] = test system: HCT-15; assay: MTT inhibition of cell proliferation; assay type: cell-based; details: Homo sapiens, 48 h
Text: (§1) In order to determine the mode of action of cell death in cancer cells, first we explored the cytotoxic potential of different structural analogs of benzothiazoles on different human cancer cell lines. […] These compounds have limited or no cytotoxicity to cervical cancer SiHa, HeLa cells, breast cancer MCF-7 cells and colon cancer HCT-15 cells.

[2] = test system: HL-60; assay: MTT inhibition of cell proliferation; assay type: cell-based; details: Homo sapiens, 48 h
Text: as §1

[3] = test system: Hela; assay: MTT inhibition of cell proliferation; assay type: cell-based; details: Homo sapiens, 48 h
Text: as §1

[4] = test system: MCF-7; assay: MTT inhibition of cell proliferation; assay type: cell-based; details: Homo sapiens, MCF7, 48 h
Text: as §1

[5] = test system: SiHa; assay: MTT inhibition of cell proliferation; assay type: cell-based; details: Homo sapiens, 48 h
Text: as §1

[6] = test system: normal monkey kidney CV-1 cells; assay: MTT cytotoxicity in normal cells; assay type: cell-based; details: Primates
Experimental: These compounds were also evaluated for their cytotoxic potential in normal cells and for these purpose their IC50 value were also determine in normal monkey kidney CV-1 cells by using MTT method. The ratios of normal to cancer cells IC50 value were ranges from 10-1000 times (Table 5).

[7] = test system: HL-60 cells; assay: Annexin V-FITC flow cytometric analysis of apoptosis and necrosis; assay type: cell-based, human; details: 1 μM, 24 h
Experimental: During apoptosis an important biochemical change that take place in cells undergoing is flipping of phosphatidyl serine lipid from the inner leaflet of the cellular membrane to the outer one.
Annexin V a calcium dependent phospholipids binding protein has a high affinity for PS. […] Compounds 4-8 at 1 μM were treated with HL-60 cells were incubated for 24 h and the extent of apoptosis vs. necrosis was analyzed from the quadrant analysis of cell population with Annexin V-FITC. Both the apoptotic and post apoptotic cell populations increased in HL-60 cells.

[8] = test system: caspase-3, caspase-8, caspase-9 activity in HL-60 Cells; assay: Caspases induction; assay type: cell-based, human; details: 1 μM, 24 h
Text: So activation of caspases by compound 8 indicate that it induce apoptosis through both the intrinsic as well as extrinsic apoptotic pathway in HL-60 cells.

[9] = test system: HL-60 cells; assay: Flow cytometric analysis of reactive oxygen species (DCFH-DA); assay type: cell-based, human; details: 1 μM, 24 hr, HL-60
Experimental: It was clear that these compounds were cytotoxic and induce apoptosis in HL-60 cells, now we have to found out the early events which were responsible for the induction of apoptosis like reactive oxygen species (ROS) or nitric oxide (NO) generation. Intracellular peroxide (ROS) in the cells was measured by DCFH-DA by using flow cytometry. Cells were incubated with tested compounds at 1 μM for 24 h in HL-60 cells and analyzed by flow cytometry after double staining with DCFH-DA (FIG. 7). Cells were analyzed for fluorescence intensity in FL1 vs. cell count. There was hardly any DCF fluorescence (ROS positive cells) in the untreated HL-60 cells, and this status remained unchanged when cells were incubated for 24 hr with compounds 7 and 8. […] Compounds 4 and 6 also induce the generation of peroxide in HL-60 cells (31 and 16% increase, respectively).

[10] = test system: HL-60 cells; assay: Loss of mitochondrial membrane potential (Rh-123 uptake); assay type: cell-based, human; details: 1 μM, 48 h
Experimental: Rhodamine-123 uptake into mitochondria is driven by mitochondrial Transmembrane potential (Ψmt) that allows the determination of cell population with active integrated mitochondrial functions. Loss of Ψmt leads to depolarization of mitochondrial membranes leading to collapse of mitochondrial functions ensuing cell death. The loss of Ψmt indicated the loss of mitochondrial integrity to couple electrons to energy production. HL-60 cells exposed to tested compounds for 48 h at 1 μM were analyzed for Rh-123 uptake by flow cytometry. The percentage of cells with low Rh-123 quantum fluorescence indicative of loss of Ψmt was calculated among the total acquired cell events (10,000). In the untreated control cells, more than 90% cells were functionally active with high Rh-123 signals (FIG. 9).

[11] = test system: topoisomerase II; assay: DNA topoisomerase-II inhibition assay; assay type: biochemical; details: 1 μM; etoposide 100 μM
Text: DNA topoisomerases are nuclear enzymes capable of resolving the topology of DNA to allow its replication. So, proper relaxing is very important for successful replication cycle and thus for the cell survival. However, topoisomerases also serve as targets in the anticancer chemotherapy in which cell death serves an important purpose. Moreover, the topoisomerase targeting drugs can either be classified either topo posions, which act by stabilizing enzyme DNA cleavable complexes leading to DNA break or topo catalytic inhibitors, which act by stabilizing enzyme where both DNA strands remain intact and no DNA breaks occur. Importantly, all the topoisomerase inhibitors finally induce apoptosis. In the present study, all the five compounds 4-8 were first subjected to topoisomerase II inhibition assay.

[12] = test system: HL-60; assay: Fluorescent microscopic (DAPI) analysis of cell death; assay type: cell-based, human; details: HL-60, 1 μM, 24 h, data not shown
Experimental: (§2) The mechanism of cell death was also studied in HL-60 and PC-3 cells by fluorescent microscopic studies. The PC-3 cells were treated with compd. 8 as in case of HL-60 cells. For fluorescent DAPI staining, air dried smears of cells on glass slides were fixed in absolute methanol at −20° C. for 20 min and stained with DAPI (Sigma) at 1 μg/ml at room temperature for 20 min in the dark and mounted with 90% glycerol in PBS and observed under fluorescent microscope (Olympus).
(§3) Morphological changes of HL-60 and PC-3 cells in response to this compound 8 were observed. The untreated cells were having large sized nuclei.

[13] = test system: PC-3 cells; assay: as above; assay type: cell-based, human; details: PC-3, 1 μM, 24 h
Experimental: as §2, §3

[14] = test system: Ehrlich Ascites Carcinoma (EAC); assay: In vivo anticancer activity, Ehrlich ascites carcinoma; set-up: species or system Swiss mice; details: for No. of deaths / toxicity to animals: EAC mice
Experimental: Model: Ehrlich Ascites Carcinoma (EAC)
Ehrlich ascites carcinoma (EAC) cells were collected from the peritoneal cavity of the swiss mice harbouring 8-10 days old ascitic tumor. 1×10^7 EAC cells were injected intraperitoneally in Swiss mice selected for the experiment on day 0. The next day, animals were randomized and divided into different groups. The treatment groups contained 7 animals each and control group contained 10 animals. Treatment groups were treated with different doses of test substances intraperitoneally from day 1-9. One of the treatment group received 5-fluorouracil (20 mg/kg, i.p) and it served as positive control. The tumor bearing control group was similarly administered normal saline (0.2 ml, i.p.). On day 12, animals were sacrificed and ascitic fluid was collected from peritoneal cavity of each mouse for the evaluation of tumor growth. Percent tumor growth inhibition was calculated based on the total number of tumor cells present in the peritoneal cavity as on day 12 of the experiment using the following formula.

SMILES: O=C(Nc1nc2ccc([N+](=O)[O-])cc2s1)c1cccnc1Nc1cc(F)c(F)c(F)c1 [Compound 8, N3-(6-nitro-1,3-benzothiazol-2-yl)-2-[(3,4,5-trifluorophenyl)amino]-3-pyridine carboxamide]
- IC50 [1]: > 100 µM
- IC50 [2]: 80 nM
- IC50 [3]: > 100 µM
- IC50 [4]: > 100 µM
- IC50 [5]: 36 µM
- IC50 [6]: > 100 µM
- apoptotic cells (Annexin V-FITC) [7]: around 70%
- activation of caspases-3,-8,-9 activities [8]: 2-3 folds
- DCF fluorescence (ROS positive cells), in words [9]: unchanged
- loss of mitochondrial membrane potential [10]: 45%
- topoisomerase-II inhibition (DNA relaxation) [11]: more potent effect relative to etoposide; also recorded: maximum inhibition
- nuclear morphology (DAPI) [12]: fragmentatation of nuclei due to apoptosis
- nuclear morphology (DAPI) [13]: fragmentatation of nuclei due to apoptosis; also recorded: condensation and fragmentation of nuclei
- Growth Inhibition (%) ([14]; 0.1 mg/kg i.p. day 1-9, read day 12): 10.98%
- No. of deaths / toxicity to animals ([14]; 0.1 mg/kg i.p.): 0/7
- Growth Inhibition (%) ([14]; 0.3 mg/kg i.p. day 1-9, read day 12): 53.15%
- No. of deaths / toxicity to animals ([14]; 0.3 mg/kg i.p.): 0/7
- Growth Inhibition (%) ([14]; 0.4 mg/kg i.p. day 1-9, read day 12): Intolerable
- No. of deaths / toxicity to animals ([14]; 0.4 mg/kg i.p.): deaths of all the seven animals
- No. of deaths / toxicity to animals ([14]; 0.4 mg/kg i.p., listed as Comp 8): 7/7
- Growth Inhibition (%) ([14]; 0.5 mg/kg i.p. day 1-9, read day 12): Intolerable
- No. of deaths / toxicity to animals ([14]; 0.5 mg/kg i.p.): 7/7
- Growth Inhibition (%) ([14]; 2 mg/Kg i.p. day 1-9, read day 12): Intolerable
- No. of deaths / toxicity to animals ([14]; 2 mg/Kg i.p.): 7/7
- Growth Inhibition (%) ([14]; 5 mg/Kg i.p. day 1-9, read day 12): Intolerable
- No. of deaths / toxicity to animals ([14]; 5 mg/Kg i.p.): 7/7
- Growth Inhibition (%) ([14]; 20 mg/Kg i.p. day 1-9, read day 12): Intolerable
- No. of deaths / toxicity to animals ([14]; 20 mg/Kg i.p.): 7/7
